# Assay results published in patent publication US7297794B2, “Phenoxy amine compounds and compositions for delivering active agents” (Emisphere Technologies, Inc., priority 2001, dated 2007).
# Where “and” joins values, the source holds several entries; their conditions need not be identical. Equal entries are not always repeated. Structures can show the parent of a compound that is named as a salt.
# Test: not given
# Settings: not given
row,melting point [°C],Compound
1,137 to 139,"Oc1ccccc1OCCCCCCCCN1CCOCC1 (as salt: salt) [Compound 1, 4-8-(2-hydroxyphenoxy) octylmorpholine]"
2,138 to 141,"CC(=O)c1ccccc1OCCCCCCN(C)C.Cl [Compound 8, 6-(2-acetylphenoxy)-1-dimethylaminohexane hydrochloride]"

# Test: Insulin - Oral Delivery (glucose levels in serum after oral dosing of delivery agent compound with human zinc insulin)
# Type: in vivo, Male Sprague-Dawley rats
# Settings: rat, delivery agent compound 200 mg/kg + insulin 0.5 mg/kg, volume dose 2 ml/kg
# Method: Oral dosing (PO) compositions of delivery agent compound and human zinc insulin (minimum 26 IU/mg available from Calbiochem-Novabiochem Corp, La Jolla, Calif.) were prepared in deionized water. Typically, 500 mg of delivery agent compound was added to 1.5 ml of water. The solution was vortexed, then heated (about 37° C.) and sonicated. The pH was adjusted to about 7 to 8.5 with NaOH or HCl. Additional NaOH was added, if necessary, to achieve uniform solubility, and the pH re-adjusted to about 7 to 8.5. Water was then added to bring the total volume to about 2.4 ml and vortexed. About 1.25 mg insulin from an insulin stock solution ([…] made from 0.5409 g insulin and 18 ml deionized water, adjusting with HCl and NaOH to pH 8.15 and to obtain a clear solution using […]) was added to the solution and mixed by inverting. The solution may be used in the dosing protocol immediately, or alternatively, the solution may be placed into a 37° C. water bath for one hour prior to dosing. The final delivery agent compound dose, insulin dose and dose volume amounts are listed below in Table 1.
# The typical dosing and sampling protocols were as follows. […] A dosing group of five animals was administered one of the dosing solutions. […] The dosing solution was administered by pressing the syringe plunger.
row,Compound,Glucose Levels in Serum (% change from baseline ± SD)
1,4-(4-(2-hydroxyphenoxy)butyl)morpholinium Citrate [Compound 7],−11.7 ± 3.4%
2,"Oc1ccccc1OCCCCCCCCN1CCOCC1 [Compound 1, 4-8-(2-hydroxyphenoxy) octylmorpholine]",−5.9 ± 4.6% and 0.3 ± 8.2%
3,"OCCN(CCO)CCCCCCCCOc1ccccc1O [Compound 2, 8-(2-hydroxyphenoxy) octyldiethanolamine) citrate]",−10.8 ± 6.8%
4,"Oc1ccccc1OCCCCCCCN1CCOCC1 [Compound 3, 7-(4-(2hydroxyphenoxy)heptylmorpholinium citrate]",−9.8 ± 4%
5,Oc1ccc(OCCCCCCN2CCOCC2)cc1 [Compound 4],−2.3 ± 10.6%
6,"NCCCCCCCCOc1ccc(O)cc1 [Compound 6, 8-(4-hydroxyphenoxy)octanamine]",6.4 ± 17.1%
7,"CC(=O)c1ccccc1OCCCCCCN(C)C.Cl [Compound 8, 6-(2-acetylphenoxy)-1-dimethylaminohexane hydrochloride]",−8.2 ± 9.5%

# Test: Oral BIBN4096BS Delivery (peak BIBN4096BS concentration after oral gavage with delivery agent compound)
# Settings: rat, delivery agent compound 200 mg/kg + BIBN4096BS 25 mg/kg, 1 ml/kg
# Method: Oral gavage (PO) dosing solutions of delivery agent compound and the calcitonin gene-related peptide antagonist, 1-piperidinecarboxamide, N-[2-[[5-amino-1-[[4-(4-pyridinyl)-1-piperazinyl)carbonyl]pentyl]amino]-1-[(3,5-dibromo-4-hydroxyphenyl)methyl]-2-oxoethyl]-4(1,4-dihydro-2-oxo-3(2H0-quinazolinyl)-. [R—(R*,S*)]- (BIBN4096BS) in water were prepared. […] The final dosing solutions were prepared by mixing the delivery agent compound with a BIBN4096BS stock solution and diluting to the desired volume (usually 1.0 mL). If necessary, the pH of the mixture was adjusted by the addition of aliquots of aqueous hydrochloric acid solution of an appropriate normality until the final pH of the dissolved delivery agent compound was below 7.0. The final compound amounts per dose were 25 mg/kg of BIBN4096BS and 200 mg/kg of delivery agent compound in a total volume of 1 mL/kg.
# The typical dosing and sampling protocols were as follows. Male Sprague-Dawley rats weighing between 200-250 g were fasted for 24 hours and administered ketamine (44 mg/kg) and chlorpromazine (1.5 mg/kg) 15 minutes prior to dosing. A dosing group of five rats was administered one of the dosing solutions. […] Plasma BIBN4096BS concentrations were quantified by using a liquid chromatography/mass spectrometry/mass spectrometry assay method using UV detection. […]
row,Mean Peak Serum ± sd ng/ml (BIBN4096BS),Compound
1,408 ± 340 ng/mL and 608 ± 552 ng/mL,"CS(=O)(=O)O.Oc1ccccc1OCCCCCCCCN1CCOCC1 [1 (Mesylate), (4-(8-(2-hydroxyphenoxy)octyl)morpholine)mesylate]"
